Converted amounts (≈) assume the structure as drawn. Like-named read-outs stand apart in the source and are kept apart here.
Columns and labels:
Type in all cases: cell-based
Salm. typhi 0901 = experiment: microbe, parasite or virus in culture; conditions: Salmonella enterica, 18 h
Description: (§1) After sterilisation at 120° C., the pH was 6.8.
(§2) The minimum inhibitory concentrations (M.I.C.) were determined by dilution of the test compounds in this mixture, the concentration ranging from 0.05 to 100 μg/cm^3 in a geometric progression with a factor of 2.
(§3) The inoculation of the dishes was carried out by means of a multiple inoculator with 10^-3 dilutions of 18 hour old broth cultures.
(§4) The dishes were placed in an oven at 37° C. and the readings were taken afer an incubation time of 18 hours. The M.I.C. was taken as the lowest concentration which inhibited a culture.

B. subtilis = experiment: M.I.C. in vitro, nutrient agar dilution; conditions: Bacillus subtilis, 18 h, read-out: M.I.C.
Description: as §1, §2, §3, §4

Esch. coli 54.127 O.M.S. = experiment: M.I.C. in vitro, nutrient agar dilution; conditions: Escherichia coli, 18 h, read-out: M.I.C.
Description: as §1, §2, §3, §4

Providentia 0223 = experiment: M.I.C. in vitro, nutrient agar dilution; conditions: 18 h, read-out: M.I.C.
Description: as §1, §2, §3, §4

Esch. coli 95 I.S.M. = experiment: M.I.C. in vitro, nutrient agar dilution; conditions: Escherichia coli, 18 h, read-out: M.I.C.
Description: as §1, §2, §3, §4

Serratia = experiment: M.I.C. in vitro, nutrient agar dilution; conditions: 18 h, read-out: M.I.C.
Description: as §1, §2, §3, §4

S. enteritidis Danysz = experiment: M.I.C. in vitro, nutrient agar dilution; conditions: Salmonella enterica, 18 h, read-out: M.I.C.
Description: as §1, §2, §3, §4

Strepto D.M. 19 = experiment: M.I.C. in vitro, nutrient agar dilution; conditions: 18 h, read-out: M.I.C.
Description: as §1, §2, §3, §4

Arizona 6.211 = experiment: M.I.C. in vitro, nutrient agar dilution; conditions: 18 h, read-out: M.I.C.
Description: as §1, §2, §3, §4

Strepto A 561 = experiment: M.I.C. in vitro, nutrient agar dilution; conditions: 18 h
Description: as §1, §2, §3, §4

S. oranienburg 1066 = experiment: M.I.C. in vitro, nutrient agar dilution; conditions: Salmonella enterica, 18 h, read-out: M.I.C.
Description: as §1, §2, §3, §4

Bord. bronchis. 4.617 = experiment: M.I.C. in vitro, nutrient agar dilution; conditions: 18 h, read-out: M.I.C.
Description: as §1, §2, §3, §4

Klebs. pneum. 10.031 = experiment: M.I.C. in vitro, nutrient agar dilution; conditions: 18 h, read-out: M.I.C.
Description: as §1, §2, §3, §4

Staph. 209 P = experiment: M.I.C. in vitro, nutrient agar dilution; conditions: 18 h, read-out: M.I.C.
Description: as §1, §2, §3, §4

Ps. aeruginosa A.22 = experiment: M.I.C. in vitro, nutrient agar dilution; conditions: Pseudomonas aeruginosa, 18 h, read-out: M.I.C.
Description: as §1, §2, §3, §4

Esch. coli 111 B4 = experiment: M.I.C. in vitro, nutrient agar dilution; conditions: Escherichia coli, 18 h
Description: as §1, §2, §3, §4

Sh. sonnei I.P.S. = experiment: M.I.C. in vitro, nutrient agar dilution; conditions: Shigella sonnei, 18 h, read-out: M.I.C.
Description: as §1, §2, §3, §4

Pr. mirabilis Nig = experiment: M.I.C. in vitro, nutrient agar dilution; conditions: Proteus mirabilis, 18 h, read-out: M.I.C.
Description: as §1, §2, §3, §4

Pr. vulgaris 12-53 = experiment: M.I.C. in vitro, nutrient agar dilution; conditions: Proteus vulgaris, 1253, 18 h, read-out: M.I.C.
Description: as §1, §2, §3, §4

Ps. aeruginosa 72.345 = experiment: M.I.C. in vitro, nutrient agar dilution; conditions: Pseudomonas aeruginosa, 18 h, read-out: M.I.C.
Description: as §1, §2, §3, §4

Staph. 9.144 = experiment: M.I.C. in vitro, nutrient agar dilution; conditions: 18 h, read-out: M.I.C.
Description: as §1, §2, §3, §4

Pr. morganii A.236 = experiment: M.I.C. in vitro, nutrient agar dilution; conditions: Morganella morganii, 18 h, read-out: M.I.C.
Description: as §1, §2, §3, §4

[1] = Table 2, Salm. typhi 0901 (Gram negative)
[2] = Table 2, B. subtilis (Gram positive)
[3] = Table 2, Esch. coli 54.127 O.M.S. (Gram negative)
[4] = Table 2, Providentia 0223 (Gram negative)
[5] = Table 2, Esch. coli 95 I.S.M. (Gram negative)
[6] = Table 2, Berratia (Gram negative)
[7] = Table 2, S. enteritidis Danysz (Gram negative)
[8] = Table 2, Strepto D.M. 19 (Gram positive)
[9] = Table 2, Arizona 6.211 (Gram negative)
[10] = Table 2, Strepto A 561 (Gram positive)
[11] = Table 2, S. oranienburg 1066 (Gram negative)
[12] = Table 2, Bord. bronchis. 4.617 (Gram negative)
[13] = Table 2, Klebs. pneum. 10.031 (Gram negative)
[14] = Table 2, Staph. 209 P (Gram positive)
[15] = Table 2, Ps. aeruginosa A.22 (Gram negative)
[16] = Table 2, Esch. coli 111 B4 (Gram negative)
[17] = Table 2, Sh. sonnei I.P.S. (Gram negative)
[18] = Table 2, Pr. mirabilis Nig (Gram negative)
[19] = Table 2, Pr. vulgaris 12-53 (Gram negative)
[20] = Table 2, Ps. aeruginosa 72.345 (Gram negative)
[21] = Table 2, Staph. 9.144 (Gram positive)
[22] = Table 2, Pr. morganii A.236 (Gram negative)

C=Cn1cc(C(=O)O)c(=O)c2cc(F)c(N3CCOCC3)cc21 [Example 42, 6-Fluoro-7-morpholino-4-oxo-1-vinyl-1,4-dihydro-quinoline-3-carboxylic acid]
MIC (Salm. typhi 0901; Table III, Salm. typhi 0901): 0.8 µg/mL (≈ 2.51 µM) | MIC (B. subtilis; Table III, B. Subtilis): 0.2 µg/mL (≈ 0.628 µM) | MIC (Esch. coli 54.127 O.M.S.; Table III, Esch. coli 54.127 O.M.S.): 0.8 µg/mL (≈ 2.51 µM) | MIC (Providentia 0223; Table III, Providentia 0223): 25 µg/mL (≈ 78.5 µM) | MIC (Esch. coli 95 I.S.M.; Table III, Esch. coli 95 I.S.M.): 0.8 µg/mL (≈ 2.51 µM) | MIC (Serratia; Table III): 3.1 µg/mL (≈ 9.74 µM) | MIC (S. enteritidis Danysz; Table III, S. enteritidis Danysz): 1.6 µg/mL (≈ 5.03 µM) | MIC (Strepto D.M. 19; Table III, Strepto D.M. 19): 12.5 µg/mL (≈ 39.3 µM) | MIC (Arizona 6.211; Table III, Arizona 6.211): 0.8 µg/mL (≈ 2.51 µM) | MIC (Strepto A 561; Table III, Strepto A 561): 25 µg/mL (≈ 78.5 µM) | MIC (S. oranienburg 1066; Table III, S. oranienburg 1066): 100 µg/mL (≈ 314 µM) | MIC (Bord. bronchis. 4.617; Table III, Bord. bronchis. 4.617): 12.5 µg/mL (≈ 39.3 µM) | MIC (Klebs. pneum. 10.031; Table III, Klebs. pneum. 10.031): 0.8 µg/mL (≈ 2.51 µM) | MIC (Staph. 209 P; Table III, Staph. 209 P): 0.8 µg/mL (≈ 2.51 µM) | MIC (Ps. aeruginosa A.22; Table III, Ps. aeruginosa A.22): 3.1 µg/mL (≈ 9.74 µM) | MIC (Esch. coli 111 B4; Table III, Esch. coli 111 B4): 0.8 µg/mL (≈ 2.51 µM) | MIC (Sh. sonnei I.P.S.; Table III, Sh. sonnei I.P.S.): 0.8 µg/mL (≈ 2.51 µM) | MIC (Pr. mirabilis Nig; Table III, Pr. mirabilis Nig): 1.6 µg/mL (≈ 5.03 µM) | MIC (Pr. vulgaris 12-53; Table III, Pr. vulgaris 12-53): 0.8 µg/mL (≈ 2.51 µM) | MIC (Ps. aeruginosa 72.345; Table III, Pd. aeruginosa 72.345): 6.2 µg/mL (≈ 19.5 µM) | MIC (Staph. 9.144; Table III, Staph. 9.144): 1.6 µg/mL (≈ 5.03 µM) | MIC (Pr. morganii A.236; Table III, Pr. morganii A. 236): 0.2 µg/mL (≈ 0.628 µM)

CCn1cc(C(=O)O)c(=O)c2ccc(N3CCN(C)CC3)cc21 [Example T1, 1-ethyl-7-(4-methylpiperazinyl)-4-oxo-1,4-dihydro-quinoline-3-carboxylic acid, reference compound]
MIC (Salm. typhi 0901; [1]): 3.1 µg/mL (≈ 9.83 µM) | MIC (B. subtilis; [2]): 1.6 µg/mL (≈ 5.07 µM) | MIC (Esch. coli 54.127 O.M.S.; [3]): 1.6 µg/mL (≈ 5.07 µM) | MIC (Providentia 0223; [4]): 100 µg/mL (≈ 317 µM) | MIC (Esch. coli 95 I.S.M.; [5]): 0.8 µg/mL (≈ 2.54 µM) | MIC (Serratia; [6]): 12.5 µg/mL (≈ 39.6 µM) | MIC (S. enteritidis Danysz; [7]): 3.1 µg/mL (≈ 9.83 µM) | MIC (Strepto D.M. 19; [8]): 50 µg/mL (≈ 159 µM) | MIC (Arizona 6.211; [9]): 1.6 µg/mL (≈ 5.07 µM) | MIC (Strepto A 561; [10]): 50 µg/mL (≈ 159 µM) | MIC (S. oranienburg 1066; [11]): > 100 µg/mL | MIC (Bord. bronchis. 4.617; [12]): 25 µg/mL (≈ 79.3 µM) | MIC (Klebs. pneum. 10.031; [13]): 0.8 µg/mL (≈ 2.54 µM) | MIC (Staph. 209 P; [14]): 3.1 µg/mL (≈ 9.83 µM) | MIC (Ps. aeruginosa A.22; [15]): 12.5 µg/mL (≈ 39.6 µM) | MIC (Esch. coli 111 B4; [16]): 1.6 µg/mL (≈ 5.07 µM) | MIC (Sh. sonnei I.P.S.; [17]): 1.6 µg/mL (≈ 5.07 µM) | MIC (Pr. mirabilis Nig; [18]): 3.1 µg/mL (≈ 9.83 µM) | MIC (Pr. vulgaris 12-53; [19]): 3.1 µg/mL (≈ 9.83 µM) | MIC (Ps. aeruginosa 72.345; [20]): 12.5 µg/mL (≈ 39.6 µM) | MIC (Staph. 9.144; [21]): 6.2 µg/mL (≈ 19.7 µM) | MIC (Pr. morganii A.236; [22]): 0.8 µg/mL (≈ 2.54 µM)

CCn1cc(C(=O)O)c(=O)c2ccc(N3CCN(CCO)CC3)cc21 [Example T4, reference compound]
MIC (Salm. typhi 0901; [1]): 25 µg/mL (≈ 72.4 µM) | MIC (B. subtilis; [2]): 3.1 µg/mL (≈ 8.98 µM) | MIC (Esch. coli 54.127 O.M.S.; [3]): 6.2 µg/mL (≈ 18 µM) | MIC (Providentia 0223; [4]): > 100 µg/mL | MIC (Esch. coli 95 I.S.M.; [5]): 6.2 µg/mL (≈ 18 µM) | MIC (Serratia; [6]): > 100 µg/mL | MIC (S. enteritidis Danysz; [7]): 12.5 µg/mL (≈ 36.2 µM) | MIC (Strepto D.M. 19; [8]): 100 µg/mL (≈ 290 µM) | MIC (Arizona 6.211; [9]): 12.5 µg/mL (≈ 36.2 µM) | MIC (Strepto A 561; [10]): > 100 µg/mL | MIC (S. oranienburg 1066; [11]): > 100 µg/mL | MIC (Bord. bronchis. 4.617; [12]): 100 µg/mL (≈ 290 µM) | MIC (Klebs. pneum. 10.031; [13]): 3.1 µg/mL (≈ 8.98 µM) | MIC (Staph. 209 P; [14]): 6.2 µg/mL (≈ 18 µM) | MIC (Ps. aeruginosa A.22; [15]): 100 µg/mL (≈ 290 µM) | MIC (Esch. coli 111 B4; [16]): 6.2 µg/mL (≈ 18 µM) | MIC (Sh. sonnei I.P.S.; [17]): 6.2 µg/mL (≈ 18 µM) | MIC (Pr. mirabilis Nig; [18]): 50 µg/mL (≈ 145 µM) | MIC (Pr. vulgaris 12-53; [19]): 25 µg/mL (≈ 72.4 µM) | MIC (Ps. aeruginosa 72.345; [20]): 100 µg/mL (≈ 290 µM) | MIC (Staph. 9.144; [21]): 3.1 µg/mL (≈ 8.98 µM) | MIC (Pr. morganii A.236; [22]): 3.1 µg/mL (≈ 8.98 µM)
